According to article PMC12454639, “Direct disassembly of α-syn preformed fibrils into α-syn monomers by an all-D-peptide” (NPJ Parkinson's Disease, 2025):
Entries after “also recorded” stand apart in the source; their conditions may differ. Square brackets hold non-standard residues; d marks the D form. Peptide text beside a SMILES is read from it.

What was measured:
[1] = tested on: α-syn monomer; experiment: 100 kDa MWCO fractionation of de novo aggregation samples followed by ELISA; type: biochemical, Human; details: 7 days, ELISA n = 3
Description: (§1) Fig. 7 De novo aggregation analysis of α-syn in the presence and absence of SVD-1a. A De novo ThT assay of 10 µM α-syn with and without 20 µM SVD-1a. ThT fluorescence progression was measured in a 96-well non-binding half-area plate (Corning, USA) with a FLUOStar plate reader (BMG labtech, GE) at λex = 448 nm and λem = 482 nm with 300 rpm continuous orbital shaking between reads. For induction of aggregation, one borosilicate bead per well was added (d = 3 mm, Hilgenberg, GE). Data are shown as mean values with ±SD (n = 5). B CD secondary structure analysis of de novo aggregation samples. Samples were incubated as described in (A) without added ThT (n = 3) and subsequently pooled for CD analysis. Far-UV ellipticity of the samples was measured in a quartz cuvette (l = 10 mm) in a J-1100 CD-spectrometer (Jasco, GE). In addition to (A), a sample with 20 µM SVD-1a alone was incubated under identical conditions and later used as a reference for the sample with α-syn and SVD-1a. For this sample (α-syn + SVD-1a (after incubation)), the SVD-1a reference subtracted CD spectrum is shown. […] D α-Syn in the flow through (MWCO < 100 kDa) was quantified using an α-syn specific ELISA (BioLegend, Human α-Synuclein (Colorimetric), 448607, n = 3). E Retentate and flow-through samples were analyzed using SDS–PAGE with silver staining. […]

[2] = tested on: α-syn monomer; experiment: AFM of de novo aggregation endpoint samples; type: biochemical; details: 10 µM α-syn + 20 µM SVD-1a
Description: as §1

[3] = tested on: α-syn monomer; experiment: SDS–PAGE of fractionated de novo aggregation samples; type: biochemical; details: 10 µM α-syn, 5, 10, 20 µM SVD-1a, 7 days, silver staining
Description: For small PFF pre incubation with or without SVD-1a (Fig. 4) samples were pre-incubated at 37 °C and 600 rpm for 72 h in PBS pH 7.4 with 0.05% sodium azide using protein low binding reaction tubes in a thermos shaker (Eppendorf GmbH, GE). For de novo aggregation analysis, each replicate was pre-incubated in PBS pH 7.4 with 0.05% sodium azide in a 96-well non-binding half-area plate (Corning, USA) in a FLUOStar platereader (BMG labtech, GE) with 300 rpm continuous orbital shaking in between reads, adding one borosilicate bead per well (d = 3 mm, Hilgenberg, GE, n = 7). 10 µM α-syn monomer was incubated with or without 5, 10 or 20 µM SVD-1a for 7 days. […] The α-syn concentration of the samples was then quantified using an α-syn-specific kit (Human α-Synuclein (Colorimetric), 448607, BioLegend, USA). […]
Supplementary Fig. 20: SDS-PAGE analysis of de novo aggregation samples at incubation endpoint in presence or absence of SVD-1a. 10 µM α-syn monomer was incubated with or without 5, 10 or 20 µM SVD-1a for 7d in a 96-well non-binding half-area plate (Corning, USA) in a FLUOStar platereader (BMG labtech, GE) with 300 rpm continuous orbital shaking in between reads adding one borosilicate bead per well (d = 3 mm, Hilgenberg, GE, n = 7). […] Retentate and flow through samples were analyzed using SDS-PAGE with silver staining. […]

## CC[C@@H](C)[C@@H](NC(=O)[C@@H](Cc1c[nH]cn1)NC(=O)[C@@H](CCC(=O)O)NC(=O)[C@@H](CCC(N)=O)NC(=O)[C@@H](Cc1c[nH]c2ccccc12)NC(=O)[C@@H](Cc1ccc(O)cc1)NC(=O)[C@H](NC(=O)[C@@H](CCC(=O)O)NC(=O)[C@@H](Cc1c[nH]cn1)NC(=O)[C@H](NC(=O)[C@H]1CCCN1C(=O)[C@@H](CC(C)C)NC(=O)[C@H](N)CCCNC(=N)N)[C@H](C)O)[C@H](C)O)C(=O)N[C@H](Cc1c[nH]c2ccccc12)C(=O)N[C@H](Cc1c[nH]cn1)C(=O)N[C@H](C)C(=O)N[C@H](CCCNC(=N)N)C(=O)N[C@H](CCCNC(=N)N)C(=O)N[C@H](CCCNC(=N)N)C(=O)N[C@H](CCCNC(=N)N)C(=O)N[C@H](CCCNC(=N)N)C(N)=O [SVD-1a] (H-[dR][dL][dP][dT][dH][dE][dT][dY][dW][dQ][dE][dH][dI][dW][dH][dA][dR][dR][dR][dR][dR]-NH2)
[1]; 10 µM α-syn with 5, 10, 20 µM SVD-1a, controls ~3.7 µM before, ~0.3 µM after incubation without compound
  monomeric α-syn in flow-through: concentration-dependent stabilization of monomeric α-syn
[1]; 20 µM SVD-1a, 10 µM α-syn
  monomeric α-syn in flow-through vs non-pre-incubated control: restoring monomer levels in the eluate to those of the non-pre-incubated control
[2]
  fibrils in endpoint samples (AFM): clearly do not contain any fibrils
[3]
  aggregate band in retentate / shift to flow-through: a progressive shift of α-syn from the retentate to the flow-through is observed; also recorded: the aggregate band intensity was substantially diminished
